From US20060094676A1, “Compositions and methods for treating cancer using compositions comprising an inhibitor of endothelin receptor activity” (priority 2004, published 2006) come the findings set out here.

One assay relates to 7 melanoma lines. The assay can be described thus: MTS assay, number of viable cells. Type of assay: cell-based. As to conditions: 100 μM BQ788; all 7 melanoma lines tested.
The test system of the next assay is GRAVIN. The assay can be described thus: Real-time RT-PCR of Gravin transcripts. The settings on record: melanoma cell lines treated with BQ788. The assay is classed as cell-based, human. How it is done: Equal amounts of RNA from cells that were treated with BQ788 for 3 days were subjected to real-time RT-PCR analysis for the detection VEGF (A), HIF-1α (B) and Gravin (C) transcripts. Differences in expression levels are shown as x fold change and are statistically significant (p<0.05) unless a column in marked as non significant (N.S.). Sections of two representative tumors derived from a human melanoma cell line grown in nude mice and injected either with vehicle (D) or BQ788 (E) were stained with anti CD-31 to highlight blood vessels (brown staining, Lahav et al, 1999).
RNA was prepared from the different cell lines in different culture conditions using SV total RNA isolation kit (Promega) according to the manufacturer's protocol. For each sample RNA concentration was determined using the total RNA nano procedure of an Agilent bioanalyzer. A stock of SK-MEL-28 RNA aliquots was prepared containing 10, 20, 50, 100, 200, 500 and 1000 ng/12 μl for use as a standard curve and kept in −80° C. For the experimental unknown samples, a stock of 100 ng/12 μl RNA aliquots from each cell line and condition was prepared and stored at −80° C. […] A standard curve of Ct versus RNA quantity was established and accordingly the Ct in the unknown samples was correlated to quantity of transcript. […]
Background: Quantitative PCR measures a nucleic acid by following its amplification.

The next assay has as its system primary melanoma cells. The assay can be described thus: Apoptosis detection ELISA (histone-associated DNA fragments). The settings on record: BQ788 5 days. The assay is classed as cell-based, human. How it is done:
(§1) Cells were plated in 24 wells plate in 500 μl medium and cultured for 5 days in the presence of BQ788 or solvent. A cell death detection ELISA PLUS kit (Roche) designed to reveal histone-180 bp DNA fragment complexes of nucleosomes was used to measure apoptosis. Briefly, cells floating in the supernatants and those attached to the dish were incubated in lysis buffer for 30 min. in room temperature (RT). After spinning for 10 min at 200 g, the DNA content of each sample was determined. 20 μl containing equal amounts of DNA were added to each well (3 wells per condition) coated with anti-histone antibody and incubated with additional 80 μl anti-DNA peroxidase immunogen under gentle shaking conditions for 2 h at RT. After washing and revelation with peroxidase substrate the samples OD were measured at 405 nm against substrate containing wells as blank.
(§2) Because BCL-2A1 and PARP are known regulators of apoptosis (Smulson, et al., Roles of poly(ADP-ribosyl)ation and PARP in apoptosis, DNA repair, genomic stability and functions of p53 and E2F-1, Adv. Enzyme Regul., 40:183-215 (2000); Vander Heiden, et al., Bcl-2 proteins: regulators of apoptosis or of mitochondrial homeostasis?, Nat. Cell Biol., 1:E209-E216, (1999)), we used an apoptosis detection ELISA that detects histone-associated DNA fragments to measure apoptotic cell death in the different cell lines treated with BQ788.
In general terms: ELISA stands for enzyme-linked immunosorbent assay.

The next assay relates to Cut-met line. The assay is described as above. The assay is classed as cell-based, human. The settings on record: BQ788 5 days. The method, then: as §1, §2
The subject of another assay is LN-met. The description is as above. Type of assay: cell-based, human. The settings on record: BQ788 5 days. The method, then: as §1, §2
The subject of another assay is SK-MEL-28. The assay is described as above. The assay is classed as cell-based, human. The settings on record: BQ788 5 days. How it is done: as §1, §2
For assay [1], the system named is ETRB. As to the kind of experiment: Real-time RT-PCR of ETRB transcripts. The assay is classed as cell-based, human. As to conditions: BQ788 treatment. How it is done: (§3) Real-time RT-PCR detection of ETRB transcripts (see legends FIG. 2) (A). ETRB protein expression compared to tubulin in SK-MEL-28 cells after 3, 5 and 7 days with (+) or without (−) BQ788 (B).
RNA was prepared from the different cell lines in different culture conditions using SV total RNA isolation kit (Promega) according to the manufacturer's protocol. For each sample RNA concentration was determined using the total RNA nano procedure of an Agilent bioanalyzer. A stock of SK-MEL-28 RNA aliquots was prepared containing 10, 20, 50, 100, 200, 500 and 1000 ng/12 μl for use as a standard curve and kept in −80° C. For the experimental unknown samples, a stock of 100 ng/12 μl RNA aliquots from each cell line and condition was prepared and stored at −80° C. For each real-time experiment one series of standard curve and unknown experimental series of aliquots was put on ice for use. Complementary DNA was prepared by adding to each tube 0.5 μl of random hexamers (Promega) and 1 μl of 10 mM dNTP mix (Promega) and incubating at 65° C. for 5 min. 4 μl of 5× M-MLV buffer (Promega), 1 μl of the RNase inhibitor RNasin (Promega) and 1 μl of M-MLV RT RNase H (Promega) were then added and the solution was incubated at 42° C. for 50 min followed by 15 min at 70° C. For real time reactions 15 μl of each cDNA sample were transferred to 3 wells in a 386 well plate. To each well we added 10 μl of TaqMan universal PCR master mix (Applied Biosystems), 1 μl of primers+probe mix (Assays-on-Demand from Applied Biosystems: EDNRB Hs00240747, BCL-2A1 Hs00187845, PARP-3 Hs00154151, VEGF Hs00173626, HIF-1α Hs00153153 and Gravin Hs00374507) and 4 μl of nuclease free water (Promega). Wells containing water instead of cDNA served as negative controls. The samples were subjected to 40 cycles of 15 sec at 95° C. and 1 min at 60° C. A standard curve of Ct versus RNA quantity was established and accordingly the Ct in the unknown samples was correlated to quantity of transcript.

Assay [2] deals with ETRB. The assay can be described thus: Western blot of ETRB protein after BQ788. The assay is classed as cell-based, human. The settings on record: SK-MEL-28 cells; 3, 5 and 7 days with BQ788.
From the text: as §3
Samples were subjected to SDS-PAGE according to the method as described (Laemmli, Cleavage of structural proteins during the assembly of the head of bacteriophage T4, Nature, 227:680-685 (1970)). Proteins were blotted onto PVDF (Millipore) membranes and the filters were blocked with 5% non-fat dry milk. Immunostaining was preformed with anti-human endothelin receptor B antibody (Assay Designs, Inc.) (4 μg/ml) or anti-human Tubulin (Oncogene Research Products) (1 μg/ml) followed by incubation with a peroxidase conjugated goat anti rabbit secondary antibody (Sigma) (1:5000). Bands of 51 kd and 60 kd for ETRB (Hiraki, et al, Regular immunohistochemical localization of endothelin-1 and endothelin receptor B in normal, hyperplastic and neoplastic human adrenocortical cells, Pathol. Int., 47:117-125 (1997)) and tubulin respectively were detected using a chemiluminescent substrate kit (Interchim) according to the manufacturer's recommendations.
Background: In western blotting, separated proteins are transferred to a membrane and probed.

For the compound `CCCC[C@@H](NC(=O)[C@@H](Cc1cn(C(=O)OC)c2ccccc12)NC(=O)[C@H](CC(C)(C)C)NC(=O)N1[C@H](C)CCC[C@@H]1C)C(=O)O` [BQ788, N-cis-2,6-dimethylpiperidinocarbonyl-L-γ-methylleucyl-D-1-methoxycarbonyltrptophanyl-D-norleucine], the “number of viable cells” value with 7 melanoma lines is listed as “very significant loss”. In addition, in the assay on GRAVIN, the GRAVIN expression result is given as “down-regulated”. Besides, the apoptosis level entry is on record as “did not display apoptosis” with primary melanoma cells, “slight increase” with Cut-met line, “intermediate level” in the assay with LN-met and “highest induction” in the assay on SK-MEL-28. In addition, the “reduction in ETRB mRNA expression” value in the assay on ETRB [1] (Cut-met line) is given as 1.49 fold; in the assay with ETRB [1] (LN-met line) it was 1.85 fold; in the assay with ETRB [1] (SK-MEL-28 cells), 11 fold. In addition, the “ETRB expression level change” value in the assay with ETRB [1] (primary melanoma cells) is given as “did not show any change”. Further, in the assay with ETRB [2], the ETRB protein levels entry is recorded as “reduced”.
